Source: patent US20090318561A1 (MUTUAL PHARMACEUTICAL COMPANY, INC., priority 2008, published 2009)
Several values for one entry are separate records, joined by “and”; a condition that tells them apart may be missing. Identical values can stand only once. Like-named read-outs stand apart in the source and are kept apart here.

Key:
[1] = test system: CYP1A2 mRNA; assay: Quantitative RT-PCR analysis of CYP1A2 mRNA content in primary human hepatocytes; conditions: 3-MC 2 μM; for Relative Fold mRNA Content: single sample
Protocol: (§1) After isolation, hepatocytes were re-suspended in Dulbecco's modified Eagle medium (DMEM; Gibco BRL, Grand Island, N.Y.) containing 5% fetal bovine serum (FBS; Gibco BRL), insulin and dexamethasone (Gibco BRL) and added to plates coated with a collagen type I substratum (BD Biosciences, Bedford, Mass.). After attachment, serum-free William's E medium containing dexamethasone, insulin, transferrin, selenium (ITS^+, BD Biosciences) was added. Cultures of hepatocytes were maintained for 36 to 48 hours prior to initiating experiments.
(§2) Dosing solutions were prepared fresh daily in cell culture medium such that the final dimethyl sulfoxide (DMSO) concentration was 0.1%. At the conclusion of the treatment period, cells were incubated with substrates and harvested for total RNA isolations.
(§3) Cells in 24-well format were washed with one volume (0.5 mL) of Hank's Balanced Salt Solution and lysed by addition of 350 μL of ABI Nucleic Acid Lysis Solution (Applied Biosystems, Foster City, Calif.) and frozen at −70° C. Lysates were thawed and total RNA was isolated from each sample using an ABI 6100 Prepstation. Isolated RNA was analyzed using a Nanoprop® spectrophotometer (Wilmington, Del.) to estimate the total RNA concentrations, and RNA was stored at −70° C. For reverse transcription (RT), approximately 200 ng of pooled total RNA was converted to cDNA following the manufacturer's procedure for the High Capacity cDNA Archive Kit (Applied Biosystems, Foster City, Calif.).
(§4) CYP1A2 cDNA from human hepatocyte cultures was analyzed from each RT reaction using gene-specific TAQMAN® primer/probe sets (Applied Biosystems). Reactions with the specific primer/probes for beta-actin were analyzed as an endogenous control for CYP450 expression. Amplifications were performed on an ABI 7500 Real-Time PCR System (Applied Biosystems) in relative quantification mode for 40 amplification cycles using standard conditions for TaqMan®-based assays. Threshold cycle (CT) determinations were performed by the ABI 7500 system software for both CYP450 and endogenous control gene □-actin. Relative-fold mRNA content was determined for each treatment group relative to the endogenous control gene expression and 0.1% DMSO vehicle control for each sample using the relationship:
2^−ΔΔC^T=relative-fold mRNA content.
(§5) Data (activities and mRNA) were analyzed for mean and standard error. […] Initially, data were examined for homoscedasticity and normality (of residuals from the ANOVA model fitting) using Levene's and Shapiro-Wilk tests, respectively.
(§6) Negative control cultures were treated with media alone (in the presence or absence of 0.1% DMSO).

[2] = test system: CYP1A2 mRNA; conditions: human, 3 days
Protocol: as §1, §2, §3, §4
2^−ΔΔC^T=relative-fold mRNA content.
as §5, §6

Structure (SMILES)	Mean Relative Fold mRNA Content ([1]; lot Hu485)	Percent of Adjusted Positive Control ([1]; lot Hu485) [%]	Relative Fold mRNA Content ([1]; lot Hu485)	Mean Relative Fold mRNA Content ([1]; lot Hu503)	Percent of Positive Control ([1]; lot Hu503) [%]	Relative Fold mRNA Content ([1]; lot Hu503)	Mean Relative Fold mRNA Content ([1]; lot Hu4021)	Percent of Positive Control ([1]; lot Hu4021) [%]	Relative Fold mRNA Content ([1]; lot Hu4021)	Percent of Adjusted Positive Control ([2]; 1 nM) [%]	Percent of Adjusted Positive Control ([2]; 10 nM) [%]	Percent of Adjusted Positive Control ([2]; 100 nM) [%]
Cc1ccc2cc3c(ccc4ccccc43)c3c2c1CC3 [3-MC, 3-methylcholanthrene]	396	100.00	361 and 445 and 380	161	100.00	167 and 137 and 180	71.9	100.00	68.7 and 69.1 and 77.8			
CC[C@]1(O)C[C@@H]2CN(CCc3c([nH]c4ccccc34)[C@@](C(=O)OC)(c3cc4c(cc3OC)N(C)[C@H]3[C@@](O)(C(=O)OC)[C@H](OC(C)=O)[C@]5(CC)C=CCN6CC[C@]43[C@@H]65)C2)C1 [vinblastine]										1.23	1.18	0.70
